Common to all, as to format: cell-based, human
For assay [1], the system named is DLD-1 Ras Mut cells vs DLD-1 Ras WT cells. The assay is described as follows: Competition assay, GFP-labeled Ras Mut vs Ras WT cells, FACS. On the procedure:
E. Schematic of the competition assay used to validate shRNAs from the primary screen. Ras Mut cells expressing GFP and Ras WT cells were mixed and co-infected with the same retroviral shRNA. The Mut to WT cell ratio at the end of the experiment is measured by FACS. The percentage of Ras Mut cells in the mixture infected with a candidate RSL shRNA was normalized against that of a control shRNA targeting firefly luciferase (FF) within the same experiment to generate a normalized fitness score for the Ras Mut cells. Variations of this assay are also used to test the effect of siRNAs and chemical inhibitors.
Next, a competition assay was devised to test the reproducibility of candidate RSL shRNAs from the primary screen (Torrance et al., 2001; Smogorzewska et al., 2007). Individual shRNAs were packaged into retroviruses and infected into a 50:50 mixture of GFP+ DLD-1 Ras Mut cells and GFP (colorless) DLD-1 Ras WT cells. The relative ratio of Ras Mut versus WT cells at ˜7 days post shRNA infection was analyzed by FACS and compared to that of a mixed population infected with a negative control shRNA targeting luciferase (FIG. 8E). […] To rule out cell-line specific effect of candidate RSL shRNAs, candidates were tested using the competition assay in a second isogenic pair of colorectal cancer cell lines: HCT116 KRAS WT/G13D and HCT116 KRAS WT/−, which were derived with a similar method as the DLD-1 isogenic pair (Shirasawa et al., 1993; Torrance et al., 2001).
The competition assay used to test candidate genes from the screen was modified from a previous protocol (Torrance et al., 2001; Smogorzewska et al., 2007) and was carried out in 96-well plates in independent triplicates. For this assay, 1,000 each of GFP-labeled Ras Mut and unlabeled Ras WT cells were seeded in each well. For retroviral shRNA infection, cells were infected at an MOI of 1-5, selected for 3 days with puromycin and propagated for an additional 4-5 days before analyzed by FACS. An shRNA targeting firefly luciferase (shRNA-FF) was used as the negative control. For siRNA transfection, cells were transfected with siGenome siRNAs (Dharmacon) using Lipofectamine RNAiMAX (InVitrogen) and analyzed by FACS 5-6 days post transfection An siRNA targeting luciferase (Luc) was used as the negative control. […] Untreated wells were used as negative controls. To obtain normalized fitness of Ras Mut cells that can be compared across experiments, the percentage of Ras Mut cells in each sample was normalized to that in the control samples of that experiment.

Assay [2] concerns DLD-1 Ras Mut and Ras WT cells. In words: Cell cycle and mitotic stage analysis (FACS, phospho-H3 Ser10, microscopy). The following applies: for Completion of mitosis (mitotic exit) after nocodazole release: BI-2536 for 2 hours. On the procedure:
For cell cycle analysis, cells were ethanol fixed and stained with PI and analyzed using a BD LSR II FACS analyzer (BD Bioscience). Data analysis was carried out with BD FACS Diva and FlowJo softwares. Cell cycle synchronization by double thymidine block was based on a previous protocol (Steegmaier et al., 2007). Briefly, cells were arrested with two rounds of 20-hour thymidine (2.5 mM) treatment approximately 12 hours apart and released into mitosis. […] For one-step arrest in G2/M or in prometaphase, cells were treated overnight with either RO-3306 (10 μM) or the Eg5 kinesin inhibitor monastrol (100 μM), respectively. For mitotic entry experiments, cells were synchronized in RO-3306 (10 uM) overnight prior to release. For mitotic release experiments, cells were released from overnight synchronization in RO-3306 (10 uM) into nocodazole ([…]) for 4 hours and mitotic cells were collected by mitotic shake-off. Cells were then release by washing out the nocodazole. For the analysis of lagging chromosomes and mitotic index by microscopy, cells seeded onto coverslips were arrested in mitosis with 100 μM monastrol for 16 hours. Cells were washed and released into fresh media and were fixed at ten minute intervals for two hours in PHEM buffer+2% formaldehyde+0.5% triton-X100. Cells were immunostained with DAPI to visualized DNA and antibodies to phospho-histone H3 Ser10 (pH3S10) and to α-tubulin to identify mitotic cells at different stages. Independent triplicates with >100 cells per replicate were analyzed. For measuring mitotic index by FACS, cells were trypsinized, fixed with ethanol and stained with PI and pH3S10 antibody.

The next assay concerns DLD-1 Ras Mut cells. The assay is described as follows: CellTiter GLO cell viability assay. The following applies: DLD-1 Ras Mut vs WT measured independently. On the procedure:
The DLD-1 and HCT116 isogenic cells were kind gifts from Dr. Bert Vogelstein (Johns Hopkins University School of Medicine) and were maintained in McCoy's 5A media supplemented with 10% FBS and antibiotics. For proliferation assays, 10,000 cells were seeded in each well of a 24-well plate and cell number was measured using CellTiterGLO (Promega). For adherent colony assays, 1000 cells were seeded in each well of a 6-well plate and colonies were counted 10 days later by Coomassie staining. For anchorage independent colony assays, 1000 cells were seeded in each well of a 6-well plate in media containing 0.35% low-melting point agarose and colonies were counted 3 weeks later by crystal violet staining. The PCR primers used to amplify HH barcodes from genomic DNA samples are JH353F 5′-[…]-3′ and HHR2L 5′-[…]-3′. […] Paclitaxel, nocodazole, MG132 and monastrol were from Sigma-Aldrich. RO-3306 was from EMD Calbiochem. Bortezomib was from LC Laboratories. Rabbit antibody against phospho-PLK1 T210 was from Abcam. Rabbit phosphoH3-S10 antibody was from Covance. Mouse antibodies against PLK1, K-Ras and tubulin were from Santa Cruz Biotechnologies. Rabbit anti-COPS4 antibody was from Bethyl Laboratories.

Assay [3] relates to DLD-1 PI3K Mut cells vs PI3K WT cells. The assay is described as follows: Competition assay, PI3K Mut vs PI3K WT cells. The note with it: DLD-1 isogenic for the PI3K oncogene.
The subject of assay [4] is HCT116 PI3K Mut cells vs PI3K WT cells. In words: Competition assay, PI3K Mut vs PI3K WT cells. The following applies: HCT116 isogenic for the PI3K oncogene.
The test system of assay [5] is HMECs, HCT116, HCC1954 and DLD-1 cells. The assay is described as follows: Cell viability after nutlin-3 treatment. The note with it: 4 days of nutlin-3 treatment; HMECs and HCT116 p53 wild-type, HCC1954 and DLD-1 p53 mutant. On the procedure: Cell viability is reflective of their p53 status (HMECs and HCT116 cells, p53 wild-type; HCC1954 and DLD-1 cells, p53 mutant). Cell viability was measured after 4 days of nutlin-3 treatment (*, P<0.05). ctrl, control.
Cells were infected in triplicate in 96-well or 24-well plates with retroviruses of individual shRNAs as described above, and the media was replaced 24 h after infection. On days 2, 6, or 9 post-infection, cell viability was measured using CellTiter-Glo reagent (Promega) per manufacturer's instruction on a Wallac Victor2 plate reader (Perkin Elmer).

In a further assay the test system is MDM2 and p21. The assay is described as follows: Western blot of MDM2 and p21 in response to nutlin-3. The following applies: 2 days post treatment. The text has this: D. Top, Western blots of MDM2 protein knockdown in HCC1954 cells and HMECs by MDM2 shRNAs (4 days post-infection) as indicated in FIG. 4E.
The following primary and secondary antibodies were used for immunoblotting with the indicated dilutions: rabbit anti-Rbx1 and mouse anti-PRPS2 (1:500, Abcam), rabbit anti-MYPT1 (PPP1R12A gene product, 1:500, Upstate), mouse anti-tubulin and rabbit anti-GAPDH (1:2000, Sigma), mouse anti MDM2 (1:500, Santa Cruz), rabbit anti-BUB1 (1:500, Bethyl), mouse anti-p53 DO-1 and mouse anti-p21 (1:500, Calbiochem), goat anti-rabbit-HRP (1:5000, Jackson ImmunoResearch), and goat anti-mouse-HRP (1:5000, Jackson ImmunoResearch). Positive and negative siRNA controls, including siLUC, siTOX, siGLO duplexes and a PLK1 SMARTpool, were purchased from Dharmacon.
(In general: In western blotting, separated proteins are transferred to a membrane and probed.)

Entries after “also recorded” stand apart in the source; their conditions may differ.

With `CC[C@@H]1C(=O)N(C)c2cnc(Nc3ccc(C(=O)NC4CCN(C)CC4)cc3OC)nc2N1C1CCCC1` [BI-2536], in assay [1] (DLD-1, 24 hours treatment, drug washed out, 3 additional days before FACS), the “Viability/fitness of Ras Mut cells after transient treatment” value was “sufficient to selectively impair the viability of Ras Mut cells”. In addition, in assay [1] (DLD-1 cells), the “Concentration at which the synthetic lethal effect is strongest” value is on record as “approximately 25 nM”. For the same compound, in assay [2] (DLD-1, 25 nM or 50 nM BI-2536 for one day), the “G2/M accumulation, cell cycle distribution” value was “Ras Mut cells show a profound G2/M accumulation”. Besides, the “Sub-G1 population (cell death)” value in assay [2] (DLD-1, prolonged treatment with BI-2536 (25 nM) for 2 days) is reported as “elevated sub-G1 population in Ras Mut cells”. Moreover, the entries for the “Completion of mitosis (mitotic exit) after nocodazole release” value in assay [2] (DLD-1 Ras Mut cells) and in assay [2] (DLD-1 Ras WT cells) were “profound delay in mitotic exit in Ras Mut cells” and “minimal effect on Ras WT cells”, respectively. The “Prometaphase arrest of mitotic cells” value in assay [2] (DLD-1 Ras Mut vs Ras WT) is on record as “strong block of Ras Mut cells in prometaphase”. Besides, in assay [2] (DLD-1 Ras WT or Ras Mut, synthetic lethal concentration of BI-2536, 1 hour), the “Mitotic entry after release from RO-3306 into nocodazole” value was “unaffected”. For the same compound, the “Toxicity by CellTiter GLO cell viability” value in the assay on DLD-1 Ras Mut cells was “enhanced toxicity in DLD-1 Ras Mut cells”. The “Fitness of PI3K Mut cells vs PI3K WT cells” value in assay [3] is reported as “more resistant to these inhibitors relative to DLD-1 PI3K WT cells”; in assay [4], “very little difference”.

Turning to `COc1ccc(C2=N[C@@H](c3ccc(Cl)cc3)[C@@H](c3ccc(Cl)cc3)N2C(=O)N2CCNC(=O)C2)c(OC(C)C)c1` [nutlin-3], the “Cell viability, sensitivity to nutlin-3” value in assay [5] is “recapitulating the sensitivity of these cells to MDM2 inactivation; also recorded: Differential sensitivity of the four cell lines”. In the assay with MDM2 and p21, the “MDM2 and p21 protein induction” value was “MDM2 and p21 induction”.

Values taken from US20110081362A1, “TREATMENT OF CANCER” (THE BRIGHAM AND WOMEN'S HOSPITAL, INC., priority 2008, published 2011).
